Where two headings read alike, the source gives them in different places.
Assays:
STAT6 = target: T1, STAT6 (Homo sapiens, UniProt P42226); assay: STAT6 Reporter Luciferase Assay (IL-13 stimulated HaCaT keratinocyte NanoLuc reporter cells); type: cell-based; details: read-out: Reporter EC50
T1 construct: stably transfected HaCaT keratinocyte cell line, which expresses NanoLuc luciferase reporter gene under the transcriptional control of the STAT6 responsive promoter; endogenous in cells; host or cells: HaCaT keratinocyte reporter cell line (stably transfected with a NanoLuc reporter)
T1 sequence (P42226 1-847): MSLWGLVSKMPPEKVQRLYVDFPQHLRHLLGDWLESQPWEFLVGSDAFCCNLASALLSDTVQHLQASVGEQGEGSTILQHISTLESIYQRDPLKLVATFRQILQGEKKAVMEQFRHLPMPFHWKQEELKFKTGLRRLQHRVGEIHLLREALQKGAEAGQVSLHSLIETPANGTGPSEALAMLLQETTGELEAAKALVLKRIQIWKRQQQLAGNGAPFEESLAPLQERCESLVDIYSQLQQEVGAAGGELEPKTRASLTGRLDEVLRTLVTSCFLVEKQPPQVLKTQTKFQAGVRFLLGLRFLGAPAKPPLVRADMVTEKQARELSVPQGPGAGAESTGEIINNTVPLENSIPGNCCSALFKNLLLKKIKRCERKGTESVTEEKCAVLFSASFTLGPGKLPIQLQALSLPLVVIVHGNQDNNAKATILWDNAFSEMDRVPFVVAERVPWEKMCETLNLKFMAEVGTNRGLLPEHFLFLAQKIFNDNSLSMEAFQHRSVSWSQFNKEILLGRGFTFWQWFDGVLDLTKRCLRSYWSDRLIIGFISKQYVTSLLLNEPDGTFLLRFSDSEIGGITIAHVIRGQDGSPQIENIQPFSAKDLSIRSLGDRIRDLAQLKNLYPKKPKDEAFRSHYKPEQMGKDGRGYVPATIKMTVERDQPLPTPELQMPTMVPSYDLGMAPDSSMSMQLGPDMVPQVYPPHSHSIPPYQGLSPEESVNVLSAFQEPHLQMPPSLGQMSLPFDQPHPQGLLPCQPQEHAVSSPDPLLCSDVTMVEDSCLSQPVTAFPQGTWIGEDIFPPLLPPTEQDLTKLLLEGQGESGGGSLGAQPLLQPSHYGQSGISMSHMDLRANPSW
Method in brief: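 IL-13 (0.12 nM, 4 h) stimulated STAT6 reporter activity in HaCaT cells after a 2 h compound pre-incubation; NanoLuc signal was measured.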

[1] = test system: CCL17 secretion in peripheral human whole blood; assay: Human Whole Blood (HWB) CCL17 TR-FRET Assay (IL-13 stimulated CCL17 secretion); type: cell-based
Method in brief: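 Measured here: CCL17 in serum by TR-FRET (665/615 nm) after overnight (16 h) room-temperature detection. The blood, heparinized and compound-treated for 2 h, received IL-13 at 10 ng/mL final and was cultured 48 h at 37 °C.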

[2] = IL-13 stimulated HaCaT STAT6 NanoLuc reporter cells
[3] = Homo sapiens, 48 h, human whole blood, IL-13 stimulated
[4] = STAT6 NanoLuc luciferase reporter, IL-13 stimulated HaCaT keratinocyte cells
[5] = Homo sapiens, 48 h, inhibition of CCL17 secretion in human whole blood, 10 ng/mL IL13, 48 hours
[6] = Homo sapiens, 48 h, human whole blood, 10 ng/mL IL13, 48 hours

`COc1ccc2c(n1)CCN(C(=O)c1ccc(N3CCc4c(c(C(=O)NCc5ccc(NC(=O)N(C)C)cc5)nn4C(C)C)C3)nc1)C2` [Example 384, N-(4-(3,3-dimethylureido)benzyl)-1-isopropyl-5-(5-(2-methoxy-5,6,7,8-tetrahydro-1,6-naphthyridine-6-carbonyl)pyridin-2-yl)-4,5,6,7-tetrahydro-1H-pyrazolo[4,3-c]pyridine-3-carboxamide] was tested, and the EC50 (STAT6; [2]) was 0.015 µM and the IC50 [1, 3] was 1.07 µM.

In the case of `CCn1nc(C(=O)NCc2ccc(NC(=O)NC)cc2)c2c1[C@@H](C)CN(c1ccc(N3CCCC3=O)cn1)C2` [Example 476, (S)-1-ethyl-7-methyl-N-(4-(3-methylureido)benzyl)-5-(5-(2-oxopyrrolidin-1-yl)pyridin-2-yl)-4,5,6,7-tetrahydro-1H-pyrazolo[4,3-c]pyridine-3-carboxamide], the EC50 (STAT6; [2]) is reported as 0.001 µM and the IC50 [1, 3] is reported as 0.009 µM.

With `CCC(C)(C)n1nc(C(=O)NCc2ccc(NC(=O)N(C)C)cc2)c2c1CCN(c1ccc(C(=O)N(C)C)cn1)C2` [Example 261, 5-(5-(dimethylcarbamoyl)pyridin-2-yl)-N-(4-(3,3-dimethylureido)benzyl)-1-(tert-pentyl)-4,5,6,7-tetrahydro-1H-pyrazolo[4,3-c]pyridine-3-carboxamide] the EC50 (STAT6; [2]) was 3.57 µM and the IC50 [1, 3] was over 30 µM.

For `CC(C)n1nc(C(=O)NCc2ccc(NC(=O)N(C)C)cc2)c2c1[C@@H](C)CN(c1ncc(C(=O)O)cn1)C2` [Example 498, (S)-2-(3-((4-(3,3-Dimethylureido)benzyl)carbamoyl)-1-isopropyl-7-methyl-1,4,6,7-tetrahydro-5H-pyrazolo[4,3-c]pyridin-5-yl)pyrimidine-5-carboxylic acid], the EC50 (STAT6; [2]) was 0.133 µM and the IC50 [1, 3] was 3.44 µM.

`CC(C)n1nc(C(=O)NCc2ccc(NC(=O)N(C)C)cc2)c2c1CCN(c1ccc(N3CCOCC3=O)cn1)C2` [Example 103, N-(4-(3,3-dimethylureido)benzyl)-1-isopropyl-5-(5-(3-oxomorpholino)pyridin-2-yl)-4,5,6,7-tetrahydro-1H-pyrazolo[4,3-c]pyridine-3-carboxamide] showed an EC50 (STAT6; [4]) of 0.047 µM and an IC50 [1, 5] of 0.535 µM.

In the case of `C[C@@H]1CN(c2ccc(C(=O)N(C)C)cn2)Cc2c(C(=O)NCc3ccc(NC(=O)N(C)C)cc3)nn(CC(F)(F)F)c21` (single isomer, unassigned) [Example 550], the EC50 (STAT6; [2]) is reported as 0.011 µM and the IC50 [1, 6] is reported as 0.085 µM.

For `CC(C)n1nc(C(=O)NCc2ccc(NC(N)=O)cc2)c2c1[C@@H](C)CN(c1ncc(-c3nccn3C)cn1)C2` [Example 562, (S)-1-isopropyl-7-methyl-5-(5-(1-methyl-1H-imidazol-2-yl)pyrimidin-2-yl)-N-(4-ureidobenzyl)-4,5,6,7-tetrahydro-1H-pyrazolo[4,3-c]pyridine-3-carboxamide], the EC50 (STAT6; [2]) was 0.003 µM and the IC50 [1, 6] was 0.008 µM.

In the case of `COCC(C)n1nc(C(=O)NCc2ccc(NC(=O)N(C)C)cc2)c2c1CCN(c1ccc(C(=O)N(C)C)cn1)C2` (racemic) [Example 92, rac-(R)-5-(5-(dimethylcarbamoyl)pyridin-2-yl)-N-(4-(3,3-dimethylureido)benzyl)-1-(1-methoxypropan-2-yl)-4,5,6,7-tetrahydro-1H-pyrazolo[4,3-c]pyridine-3-carboxamide], the EC50 (STAT6; [4]) is reported as 0.02 µM and the IC50 [1, 5] is reported as 0.062 µM.

Molecule `C[C@H]1CN(c2ccc(C(=O)N(C)C)cn2)Cc2c(C(=O)NCc3ccc(NC(=O)N(C)C)cc3)nn(C3CCC3)c21` (single isomer, unassigned) [Example 119] has an EC50 (STAT6; [4]) of 0.0003 µM and an IC50 [1, 5] of 0.004 µM.

`CCn1nc(C(=O)NCc2ccc(NC(=O)N(C)C)cc2)c2c1[C@H](C)[C@@H](C)N(c1ncc(C(=O)N(C)C)cn1)C2` (single isomer, unassigned) [Example 446] gave an EC50 (STAT6; [2]) of 0.015 µM and an IC50 [1, 3] of 0.08 µM.

`CC(C)n1nc(C(=O)NCc2ccc(NC(=O)N(C)C)cc2)c2c1C(C(F)(F)F)CN(c1ncc(C(=O)N(C)C)cn1)C2` (racemic) [Example 459, rac-(R)-5-(5-(dimethylcarbamoyl)pyrimidin-2-yl)-N-(4-(3,3-dimethylureido)benzyl)-1-isopropyl-7-(trifluoromethyl)-4,5,6,7-tetrahydro-1H-pyrazolo[4,3-c]pyridine-3-carboxamide] showed an EC50 (STAT6; [2]) of 0.0003 µM and an IC50 [1, 3] of 0.002 µM.

In the case of `CN(C)C(=O)Nc1ccc(CNC(=O)c2nc(C(C)(F)F)n3c2CN(c2ccc(C(=O)N(C)C)cn2)CC3)cc1` [Example 52, 3-(1,1-difluoroethyl)-7-(5-(dimethylcarbamoyl)pyridin-2-yl)-N-(4-(3,3-dimethylureido)benzyl)-5,6,7,8-tetrahydroimidazo[1,5-a]pyrazine-1-carboxamide], the EC50 (STAT6; [4]) is reported as 0.009 µM and the IC50 [1, 5] is reported as 0.064 µM.

`CN(C)C(=O)Nc1ccc(CNC(=O)c2cnn3c2CN(c2ccc(C(=O)N(C)C)cn2)CC3)cc1` [Example 29, 5-(5-(dimethylcarbamoyl)pyridin-2-yl)-N-(4-(3,3-dimethylureido)benzyl)-4,5,6,7-tetrahydropyrazolo[1,5-a]pyrazine-3-carboxamide] showed an EC50 (STAT6; [4]) of 2.23 µM and an IC50 [1, 5] of 0.878 µM.

In the case of `CC1Cc2c(c(C(=O)NCc3ccc(NC(=O)N(C)C)cc3)nn2C)CN1c1ccc(C(=O)N(C)C)cn1` (racemic) [Example 49, rac-(R)-5-(5-(dimethylcarbamoyl)pyridin-2-yl)-N-(4-(3,3-dimethylureido)benzyl)-1,6-dimethyl-4,5,6,7-tetrahydro-1H-pyrazolo[4,3-c]pyridine-3-carboxamide], the EC50 (STAT6; [4]) is reported as 0.009 µM and the IC50 [1, 5] is reported as 0.039 µM.

`CN(C)C(=O)Nc1ccc(CNC(=O)c2nn(C3COC3)c3c2CN(c2ccc(C(=O)N(C)C)cn2)CC3)cc1` [Example 94, 5-(5-(dimethylcarbamoyl)pyridin-2-yl)-N-(4-(3,3-dimethylureido)benzyl)-1-(oxetan-3-yl)-4,5,6,7-tetrahydro-1H-pyrazolo[4,3-c]pyridine-3-carboxamide] was tested, and the EC50 (STAT6; [4]) was 0.049 µM and the IC50 [1, 5] was 0.089 µM.

Work on `CC(C)n1nc(C(=O)NCc2ccc(NC(=O)N(C)C)cc2)c2c1CCN(c1ccc(C(=O)NCc3ccc(NC(=O)N(C)C)cc3)cn1)C2` [Example 39, N-(4-(3,3-Dimethylureido)benzyl)-5-(5-((4-(3,3-dimethylureido)benzyl)carbamoyl)pyridin-2-yl)-1-isopropyl-4,5,6,7-tetrahydro-1H-pyrazolo[4,3-c]pyridine-3-carboxamide] yielded an EC50 (STAT6; [4]) of 0.748 µM and an IC50 [1, 5] of over 30 µM.

For `CNC(=O)c1ccc(N2CCc3c(c(C(=O)NCc4ccc(NC(=O)N(C)C)cc4)nn3C(C)C)C2)nc1` [Example 135, N-(4-(3,3-dimethylureido)benzyl)-1-isopropyl-5-(5-(methylcarbamoyl)pyridin-2-yl)-4,5,6,7-tetrahydro-1H-pyrazolo[4,3-c]pyridine-3-carboxamide], the EC50 (STAT6; [4]) was 0.136 µM and the IC50 [1, 5] was 1.27 µM.

`CC(C)n1nc(C(=O)NCc2ccc(NC(=O)C3CCN(C)CC3)c(F)c2)c2c1[C@@H](C)CN(c1ccc(C(=O)N(C)C)cc1)C2` [Example 721, (S)-5-(4-(dimethylcarbamoyl)phenyl)-N-(3-fluoro-4-(1-methylpiperidine-4-carboxamido)benzyl)-1-isopropyl-7-methyl-4,5,6,7-tetrahydro-1H-pyrazolo[4,3-c]pyridine-3-carboxamide] showed an EC50 (STAT6; [2]) of 0.012 µM and an IC50 ([1]; Homo sapiens, 48 h, human whole blood, IL-13 10 ng/mL) of 0.102 µM.

For `CC1CN(c2ccc(C(=O)N(C)C)cn2)Cc2c1nn1c2C(=O)N(Cc2ccc(NC(=O)N(C)C)cc2)CC1` (single isomer, unassigned) [Example 281, rel-(R or S)-6-(9-(4-(3,3-dimethylureido)benzyl)-4-methyl-10-oxo-3,4,7,8,9,10-hexahydropyrido[4′,3′:3,4]pyrazolo[1,5-alpyrazin-2(1H)-yl)-N,N-dimethylnicotinamide], the EC50 (STAT6; [2]) was 0.017 µM and the IC50 ([1]; human whole blood, IL-13 stimulated, 48 hours) was 0.212 µM.

For `CC(=O)Nc1ccc(CNC(=O)c2nn(C(C)C)c3c2CN(c2ccc(C(=O)N(C)C)cn2)CC3)cc1` [Example 147, N-(4-acetamidobenzyl)-5-(5-(dimethylcarbamoyl)pyridin-2-yl)-1-isopropyl-4,5,6,7-tetrahydro-1H-pyrazolo[4,3-c]pyridine-3-carboxamide], the EC50 (STAT6; [4]) was 0.026 µM and the IC50 [1, 5] was 0.252 µM.
